Assay [1] concerns the target T1, human 5-HT1A-serotoninergic receptor (Homo sapiens, UniProt P08908).
T1 construct: expressed in transfected cells; host or cells: HeLa
T1 sequence (P08908 1-422): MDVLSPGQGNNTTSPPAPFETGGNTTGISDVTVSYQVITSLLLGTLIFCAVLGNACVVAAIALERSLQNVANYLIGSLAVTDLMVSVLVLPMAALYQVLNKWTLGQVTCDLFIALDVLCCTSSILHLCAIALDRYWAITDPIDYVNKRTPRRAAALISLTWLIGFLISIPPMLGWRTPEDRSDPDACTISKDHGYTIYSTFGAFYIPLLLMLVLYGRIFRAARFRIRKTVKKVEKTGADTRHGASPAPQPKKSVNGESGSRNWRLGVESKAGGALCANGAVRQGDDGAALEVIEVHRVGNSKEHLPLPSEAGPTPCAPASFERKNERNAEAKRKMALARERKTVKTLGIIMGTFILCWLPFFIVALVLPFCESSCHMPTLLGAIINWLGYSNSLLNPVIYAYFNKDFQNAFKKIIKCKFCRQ
Briefly: Radioligand binding ([3H]8-OH-DPAT) to cloned 5-HT1A receptor in HeLa cell membranes. Particulars: mean Ki, read-out: Affinity for 5-HT1A receptor, Ki. From the text:
Data were expressed as mean Ki.

Assay [2] deals with T2, recombinant α1b-adrenoceptor (Homo sapiens, UniProt P35368).
T2 sequence (P35368 1-520): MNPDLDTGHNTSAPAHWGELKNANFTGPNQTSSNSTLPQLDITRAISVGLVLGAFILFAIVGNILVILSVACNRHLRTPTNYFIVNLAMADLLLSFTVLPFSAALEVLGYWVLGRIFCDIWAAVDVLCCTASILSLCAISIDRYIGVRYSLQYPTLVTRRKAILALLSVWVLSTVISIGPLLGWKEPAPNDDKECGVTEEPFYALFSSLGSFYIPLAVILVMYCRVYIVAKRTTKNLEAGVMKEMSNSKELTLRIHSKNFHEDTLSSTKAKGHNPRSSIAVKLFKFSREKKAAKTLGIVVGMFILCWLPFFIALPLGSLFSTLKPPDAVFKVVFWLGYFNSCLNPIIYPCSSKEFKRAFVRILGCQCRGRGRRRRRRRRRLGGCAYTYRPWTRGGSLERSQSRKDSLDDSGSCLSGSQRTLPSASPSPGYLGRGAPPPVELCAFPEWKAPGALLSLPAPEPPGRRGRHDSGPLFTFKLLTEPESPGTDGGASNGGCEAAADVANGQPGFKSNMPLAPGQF
Briefly: biochemical.
Experimental: (§4) Determination of Affinity for Cloned α1 Adrenergic Receptors and 5-HT1A Serotoninergic Receptors by Radioligand Binding Assay
(§5) Determination of affinity for cloned subtypes of the α1-adrenoceptor was performed in membranes from cells transfected by electroporation with DNA expressing the genes encoding each α1-adrenoceptor subtype.
(§6) Non-specific binding was determined in the presence of 10 μM phentolamine. Incubation was stopped by addition of ice-cold Tris buffer and rapid filtration through 0.2%-polyethyleneimine pretreated Schleicher & Schuell GF52 filters.

The test system of the next assay is diastolic blood pressure. Briefly: Diastolic blood pressure in anaesthetised dogs, i.v. administration. The format is in vivo, dog. On the procedure:
(§1) Effects on Urethral Contractions (Induced by Noradrenaline Injection and Hypogastric-nerve Stimulation) and on Blood Pressure in Dogs After Intravenous Administration
(§2) The experiments were performed according to the method of Imagawa et al. (J. Pharmacol. Methods, 22:103-111, 1989) with substantial modifications, as follows: adult male beagle dogs, weighing 8-10 kg, were anaesthetised with pentobarbital sodium (30 mg/kg i.v. and 2 mg/kg/h i.v.), intubated and spontaneously ventilated with room air. In order to monitor systemic blood pressure (BP), a polyethylene (PE) catheter was introduced into the aortic arch through the left femoral artery. A collateral of the left femoral vein was cannulated for infusion of anaesthetic, and the right femoral vein was cannulated for administration of the compounds. […] Prostatic urethral pressure was monitored with a Mikro-tip catheter (5F) introduced into the bladder via the external urethral meatus, and withdrawn until the pressure transducer was positioned in the prostatic region of the urethra. […]
(§3) After a stabilizing period following the surgical procedure (30 minutes), in which arterial and prostatic urethral pressure were continuously monitored as basal values, i.a. administration of NA and stimulation of the hypogastric nerve were alternately made at intervals of 10 minutes. […]

Assay [3] addresses T3, recombinant α1a-adrenoceptor (UniProt P35348).
T3 sequence (P35348 1-466): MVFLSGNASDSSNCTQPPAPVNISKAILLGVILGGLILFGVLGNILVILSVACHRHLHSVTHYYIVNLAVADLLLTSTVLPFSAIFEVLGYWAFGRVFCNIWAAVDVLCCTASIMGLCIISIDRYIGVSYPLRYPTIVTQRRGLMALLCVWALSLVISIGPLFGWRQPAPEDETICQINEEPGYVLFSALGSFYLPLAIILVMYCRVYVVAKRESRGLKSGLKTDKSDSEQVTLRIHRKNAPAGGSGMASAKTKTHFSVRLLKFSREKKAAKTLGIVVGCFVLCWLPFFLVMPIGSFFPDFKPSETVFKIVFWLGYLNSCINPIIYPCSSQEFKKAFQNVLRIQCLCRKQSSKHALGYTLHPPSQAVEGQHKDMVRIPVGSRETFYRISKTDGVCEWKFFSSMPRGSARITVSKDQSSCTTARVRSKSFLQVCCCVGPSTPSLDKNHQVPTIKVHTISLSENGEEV
Particulars: read-out: Affinity for recombinant α1a-adrenoceptor subtype, Ki; [3H]prazosin, membranes of transfected cells; mean Ki.
Experimental: as §4, §5, §6

Assay [4] concerns prostatic urethral pressure (hypogastric-nerve stimulation). Briefly: Urethral contractions induced by hypogastric-nerve stimulation in anaesthetised dogs, i.v. administration. The format is in vivo, dog. On the procedure:
as §1, §2, §3

Assay [5] has as its system prostatic urethral pressure (noradrenaline-induced). Briefly: Urethral contractions induced by intraarterial noradrenaline in anaesthetised dogs, i.v. administration. The class given is in vivo, dog. How it is done:
as §1, §2, §3

Assay [6] has as its target T4, recombinant α1d-adrenoceptor (UniProt P25100).
T4 sequence (P25100 1-572): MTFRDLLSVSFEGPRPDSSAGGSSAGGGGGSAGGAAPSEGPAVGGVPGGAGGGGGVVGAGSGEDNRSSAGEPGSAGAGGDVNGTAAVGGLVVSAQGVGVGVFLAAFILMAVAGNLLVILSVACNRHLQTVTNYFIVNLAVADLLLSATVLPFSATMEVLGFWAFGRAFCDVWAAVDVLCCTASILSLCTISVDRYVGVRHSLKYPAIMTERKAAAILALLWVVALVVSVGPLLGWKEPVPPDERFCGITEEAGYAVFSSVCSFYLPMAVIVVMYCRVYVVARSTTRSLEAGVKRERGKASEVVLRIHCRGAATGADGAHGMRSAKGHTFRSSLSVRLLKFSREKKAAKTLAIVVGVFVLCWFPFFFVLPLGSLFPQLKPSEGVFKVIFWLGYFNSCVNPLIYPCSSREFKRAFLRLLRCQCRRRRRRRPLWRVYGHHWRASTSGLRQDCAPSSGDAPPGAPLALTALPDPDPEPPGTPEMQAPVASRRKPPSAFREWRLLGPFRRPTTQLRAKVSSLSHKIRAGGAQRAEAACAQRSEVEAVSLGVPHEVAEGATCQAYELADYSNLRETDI
Particulars: [3H]prazosin, membranes of transfected cells; mean Ki.
Experimental: as §4, §5, §6

Experimental findings from patent publication US6365591B1, “Isoxazolecarboxamide derivatives” (Recordati, S.A., Chemical and Pharmacueticals Company, priority 1999, dated 2002) are described below.

For `COc1ccc(Cl)cc1N1CCN(CCCNC(=O)c2c(-c3ccccc3)noc2C)CC1` [Example 1, N-{3-[4-(5-Chloro-2-methoxyphenyl)-1-piperazinyl]propyl}-5-methyl-3-phenylisoxazole-4-carboxamide], the results for the Ki in assay [1], in assay [2] and in assay [3] were 436 nM, 23.6 nM and 0.77 nM, respectively. Moreover, the “DBP ED25: dose inducing a 25% decrease in diastolic blood pressure” value in the assay on diastolic blood pressure was found to be 0.3545 mg/kg.
With `Cc1onc(-c2ccccc2)c1C(=O)NCCCN1CCN(c2cc(Cl)ccc2O)CC1` [Example 2, N-{3-[4-(5-Chloro-2-hydroxyphenyl)-1-piperazinyl]propyl}-5-methyl-3-phenylisoxazole-4-carboxamide], the Ki – broadly, a dissociation constant, usually derived from enzyme kinetics or from competition with a known ligand – in assay [1] was 49.5 nM; in assay [2], 9.97 nM.
With `Cc1onc(-c2ccccc2)c1C(=O)NCCCN1CCN(c2ccccc2OCC(F)(F)F)CC1` [Example 3, 5-Methyl-3-phenyl-N-{3-[4-[2-(2,2,2-trifluoroethoxy)phenyl]-1-piperazinyl]propyl}isoxazole-4-carboxamide], the Ki in assay [1] was 11.7 nM; in assay [2] it was 36.2 nM.
As for `COc1ccc(OCC(F)(F)F)cc1N1CCN(CCCNC(=O)c2c(-c3ccccc3)noc2C)CC1` [Example 4, N-{3-[4-[2-Methoxy-5-(2,2,2-trifluoroethoxy)phenyl]-1-piperazinyl]propyl}-5-methyl-3-phenylisoxazole-4-carboxamide], in assay [2], the Ki came to 570 nM.
Regarding `Cc1onc(-c2ccccc2)c1C(=O)NCCCN1CCN(c2cc(F)ccc2OCC(F)(F)F)CC1` [Example 5, N-{3-[4-[5-Fluoro-2-(2,2,2-trifluoroethoxy)phenyl]-1-piperazinyl]propyl}-5-methyl-3-phenylisoxazole-4-carboxamide], the values for the Ki in assay [1], in assay [2] and in assay [3] were 192 nM, 11.5 nM and 0.05 nM, respectively.
For the compound `Cc1onc(-c2ccccc2)c1C(=O)NCCCN1CCN(c2ccc(F)cc2OCC(F)(F)F)CC1` [Example 6, N-{3-[4-[4-Fluoro-2-(2,2,2-trifluoroethoxy)phenyl]-1-piperazinyl]propyl}-5-methyl-3-phenylisoxazole-4-carboxamide], the results for the Ki in assay [1], in assay [2] and in assay [3] were 317 nM, 69.5 nM and 0.35 nM, respectively. In assay [4], the “UP ID50 HYP: dose inhibiting by 50% the urethral contractions induced by hypogastric-nerve stimulation” value is 0.0045 mg/kg. For the same compound, the “DBP ED25: dose inducing a 25% decrease in diastolic blood pressure” value in the assay with diastolic blood pressure is 0.1967 mg/kg. Further, in assay [5], the “UP ID50 NA: dose inhibiting by 50% the urethral contractions induced by noradrenaline” value was found to be 0.0024 mg/kg.
Consider `Cc1onc(-c2ccccc2)c1C(=O)NCCCN1CCN(c2cc(Cl)ccc2OS(=O)(=O)C(F)(F)F)CC1` [Example 7, N-{3-[4-(5-Chloro-2-trifluoromethanesulphonyloxy)-1-piperazinyl]propyl}-5-methyl-3-phenylisoxazole-4-carboxamide], for which the Ki in assay [1] was at least 1000 nM; in assay [2], 7.49 nM.
In the case of `O=C(NCCCN1CCN(c2ccc(F)cc2OCC(F)(F)F)CC1)c1conc1-c1ccc(F)cc1` [Example 8, 3-(4-Fluorophenyl)-N-[3-[4-[4-fluoro-2-(2,2,2-trifluoroethoxy)phenyl]-1-piperazinyl]propyl]-isoxazole-4-carboxamide], the Ki stood at 202 nM in assay [1] and 28.1 nM in assay [2]. Further, the “Affinity for recombinant α1d-adrenoceptor subtype, Ki” value in assay [6] was 25/81.
`Cc1onc(-c2c(F)cccc2Cl)c1C(=O)NCCCN1CCN(c2ccc(F)cc2OCC(F)(F)F)CC1` [Example 9, 3-(2-Chloro-6-fluorophenyl)-N-[3-[4-[4-fluoro-2-(2,2,2-trifluoroethoxy)phenyl]-1-piperazinyl]-propyl]-5-methylisoxazole-4-carboxamide]: the figures for the Ki in assay [1] and in assay [2] were 342 nM and 24.1 nM, respectively.
As to `Cc1onc(-c2c(Cl)cccc2Cl)c1C(=O)NCCCN1CCN(c2ccc(F)cc2OCC(F)(F)F)CC1` [Example 10, 3-(2,6-Dichlorophenyl)-N-[3-[4-[4-fluoro-2-(2,2,2-trifluoroethoxy)phenyl]-1-piperazinyl]pro-pyl]-5-methylisoxazole-4-carboxamide], the inhibitory constant (Ki) is 170 nM in assay [1] and 24.2 nM in assay [2].
As for `Cc1onc(-c2ccccc2Cl)c1C(=O)NCCCN1CCN(c2ccc(F)cc2OCC(F)(F)F)CC1` [Example 11, 3-(2-Chlorophenyl)-N-[3-[4-[4-fluoro-2-(2,2,2-trifluoroethoxy)phenyl]-1-piperazinyl]propyl]-5-methylisoxazole-4-carboxamide], the Ki in assay [1] was 242 nM; in assay [2], 31.2 nM.
As to `Cc1onc(-c2c(F)cccc2Cl)c1C(=O)NCCCN1CCN(c2ccccc2OCC(F)(F)F)CC1` [Example 12, 3-(2-Chloro-6-fluorophenyl)-5-methyl-N-[3-[4-[2-(2,2,2-trifluoroethoxy)phenyl]1-piperazi-nyl]propyl]isoxazole-4-carboxamide], the Ki in assay [1] was 30 nM; in assay [2], 21.4 nM.
